For assay [1], the system named is glucagon receptor with region (ECL2 and neighbouring helical regions) replaced by GLP-1R equivalent. The note with it: ECL2 and neighbouring helical regions replaced with GLP-1R equivalent; cited from earlier work. An excerpt:
(§1) This putative salt bridge may play an important structural role, the disruption of which could result in a disturbance of the agonist-binding site formed by other residues in ECL2.

For a further assay, the system named is glucagon receptor. The note with it: cited from earlier work.
Text: as §1

In assay [2] the test system is glucagon receptor mutant Asp-385^7.41–Glu. The note with it: Asp-385^7.41–Glu glucagon receptor; cited from earlier work. The source says:
[…]. These Arg-310^5. ...

The test system of assay [3] is glucagon receptor with upper half replaced by GLP-1R. The note with it: upper half of glucagon receptor replaced with GLP-1R; cited from earlier work.
For assay [4], the system named is hGLP-1R double-Ala mutants (four sites, TM4/ECL2/TM5). Description: Radioligand binding, double-Ala scan. Details: species or system human. The settings on record: 75 pM 125I-GLP-1, >10,000-fold unlabelled GLP-1 competitor; four sites of double-Ala scan; data in Table S2.
Procedure: Flp-In HEK293 cells, cultured to confluence on five 160-cm^2 Petri dishes (pre-coated with poly-D-lysine), were washed with PBS, followed by the addition of 15 ml of ice-cold sterile double distilled water to induce cell lysis. Following 5 min incubation on ice, the ruptured cells were thoroughly washed with ice-cold PBS before being scraped from the plates and pelleted by centrifugation in a bench-top centrifuge (13,000 g for 30 min). The crude membrane pellet was resuspended in 1 ml membrane-binding solution (MBS; 50 mM HEPES pH 7.4, 2.5 mM CaCl2, 5 mM MgCl2, 0.2% BSA) and forced through a 23G needle. Aliquots (0.1 ml) were snap-frozen in liquid nitrogen and stored at −70°C. When required for assay, membranes were slowly thawed on ice before diluting to a concentration that gave total radioligand binding of <10% total counts added. […] Assays were carried out for 1 h in MultiScreen 96-well Filtration Plates (Glass fibre filters, 0.65 μm pore size, Millipore) pre-soaked in 1% non-fat milk/PBS. After the incubation, membrane-associated radioligand was harvested by transferring the assay mixture to the filtration plate housed in a vacuum manifold. […]
Binding and cAMP assays were carried out with triplicate values at each ligand concentration and with each assay being repeated at least three times. The resultant data were analysed using Prism 6 (GraphPad Software Inc.).
The test system of assay [5] is GLP-1R. The note with it: truncation of first two residues of GLP-1; cited from earlier work.
In assay [6] the test system is GLP-1R. The note with it: truncation of first two residues of GLP-1; cited from earlier work. This is another data set of the same source.
In assay [7] the test system is GLP-1R mutant Arg-190^2.60–Ala. The settings on record: cited from earlier work.
Assay [8] deals with GLP-1R mutant Arg-190^2.60–Ala. The settings on record: cited from earlier work. This is another data set of the same source.

Where no end group is shown, it is not given here.

Regarding “Ser-12–glucagon: Lys-12* in native glucagon, equivalent of Ser-18* in GLP-1”, the affinity and potency entry is “could be rescued” in [1]; “reduced affinity and potency” in the assay on glucagon receptor.
Turning to “Ala-2–glucagon: Ser-2* of glucagon replaced (equivalent of Ala-8* in GLP-1)”, in assay [2], the “effect on affinity and potency” value is “improve the affinity and potency”.
Turning to “Glu-3–glucagon: native glucagon has Gln-3*”, the affinity and potency entry in the assay on glucagon receptor was “reduced affinity and potency”; in assay [3] it was “could be rescued”.
As to “^125I-GLP-1: radioligand, kind gift of Novo Nordisk”, the specific binding result in assay [4] is “reduced specific binding”.
In the case of glucagon: native glucagon, in assay [2], the “effect on affinity and potency” value was “reducing the affinity and potency”.
Regarding “GLP-1(9–36)amide: Truncation of the first two residues of GLP-1 (EGTFTSDVSSYLEGQAAKEFIAWLVKGR-NH2; UniProt P01275 100-127, looked up, fragment)”, the affinity entry in the assay with GLP-1R [5] is given as “reduced affinity”. Besides, in the assay with GLP-1R [6], the efficacy result is recorded as “substantial loss of efficacy”.
With “oxyntomodulin: has Gln at the 3rd position rather than Glu”, in assay [7], the effect on affinity entry was “did not reduce oxyntomodulin affinity or efficacy”. In addition, the effect on efficacy result in assay [8] is recorded as “did not reduce oxyntomodulin affinity or efficacy”.
